# Reference: patent US20250051762A1, “PLATFORM USING DNA-ENCODED SMALL MOLECULE LIBRARIES AND RNA SELECTION TO DESIGN SMALL MOLECULES THAT TARGET RNA” (University of Florida Research Foundation, Incorporated, priority 2021, published 2025)
# Tests used:
# Format in all cases: cell-based, human
# MDA-MB-231 cells [1] = assay: Migration assay of MDA-MB-231 cells
# Experimental: Migration assay: MDA-MB-231 cells were grown in 60 mm diameter dishes and treated as described in “Cell culture and compound treatment” for 12 h. The medium was then removed and replaced with growth medium lacking FBS but with the same concentration of compound. After 12 h of serum starvation, the cells were detached and seeded to ThinCert™ (GBO) 24-well hanging inserts with 8 μm pores (˜5×10^4 cells per insert). Fresh growth medium with FBS was dispended in a 24-well plate (600 μL each well), and the ThinCert™ hanging inserts containing cells were then placed into the wells. After incubating for 24 h, the growth medium in the inserts was removed, and the remaining cells were washed twice with 1×DPBS. Cells were fixed by addition of 3% (w/v) paraformaldehyde (PFA) prepared in 1×DPBS at room temperature for 20 min. The PFA solution was removed, and cells were washed twice with 1×PBS. The cells were then stained with Crystal Violet (10 mg/mL; 4:1 H2O: MeOH) at room temperature for 20 min. A cotton swab was used to gently remove non-migrating cells from the top side of the filter. The remaining cells were then imaged by microscopy and counted for quantification (3 fields of view per sample).
# PP4C = assay: Western blot of PP4C in MDA-MB-231 cells; conditions: relative to β-actin, 48 h
# Experimental: Western Blotting: MDA-MB-231 cells were grown in 6-well plates to ˜80% confluency in complete growth medium and then incubated with 9 at the indicated concentrations for 48 h. Total protein was extracted using M-PER Mammalian Protein Extraction Reagent (Pierce Biotechnology) using the manufacturer's protocol and quantified using a Micro BCA Protein Assay Kit (Pierce Biotechnology). Approximately 50 μg of total protein was separated on a 10% SDS-polyacrylamide gel, and then transferred to a PVDF membrane. The membrane was washed with 1× Tris-buffered saline (TBS) and then blocked in 1×TBST (1×TBS containing 0.1% (v/v) Tween-20) containing 5% (w/v) milk for 1 h at room temperature. […] The membrane was again washed with 1×TBST, and protein expression was quantified using SuperSignal West Pico Chemiluminescent Substrate (Pierce Biotechnology) per the manufacturer's protocol.
# To quantify b-actin expression, used for normalization, the membrane was stripped using 1× Stripping Buffer (200 mM glycine, pH 2.2 and 0.1% SDS) followed by washing in 1×TBST. […] The fold change of the target protein expression (PP4C or PDCD4) was calculated by normalizing its band intensity to b-actin band intensity using ImageJ.
# MDA-MB-231 cells [2] = assay: Global proteomics profiling by LC-MS/MS in MDA-MB-231 cells
# Experimental: Global proteomics profiling using LC-MS/MS: Treated cell pellets were resuspended in 1×PBS, lysed by sonication, and protein concentration was determined by using a Bradford assay (Bio-Rad). Samples (30 μg) were denatured in 6 M urea in 50 mM NH4HCO3, pH 8, reduced for 30 min with 10 mM TCEP, and alkylated for 30 min in the dark with 25 mM iodoacetamide. Samples were diluted to 2 M urea with 50 mM NH4HCO3, pH 8, and the proteins were digested with trypsin (1 μL of 0.5 μg/μL) in the presence of 1 mM CaCl2) for 12 h at 37° C. The samples were acidified by adding acetic acid to a final concentration of 5% (v/v). After desalting the samples over a self-packed C18 spin column, they were dried and analyzed by LC-MS/MS (see below). The resulting MS data were processed with MaxQuant as described below.
# LC-MS/MS analysis: Peptides were dissolved in water containing 0.1% formic acid (FA) and analyzed using an EASY-nLC 1200 nano-UHPLC connected to a Q Exactive HF-X Quadrupole-Orbitrap mass spectrometer (Thermo Scientific). A 50 cm long, 75 μm i.d. chromatography column packed with ReproSil-Pur 120 C18-AQ 2.4 μm beads (Dr. Maisch GmbH) and capped by a 5 μm tip was used. Water with 0.1% FA in water (Buffer A) and 90% acetonitrile (MeCN): 10% water with 0.1% FA (Buffer B) were used as liquid chromatography solvents. A flow rate of 300 nL/min over a 240 min linear gradient (5-35% Buffer B) at 65° C. was used to clute peptides into the mass spectrometer. Data-dependent acquisition (top-20, NCE 28, R=7,500) after full MS scan (R=60,000, m/z 400-1,300) with a dynamic exclusion of 10 seconds was performed. Peptide match to prefer and isotope exclusion were selected and enabled.
# MaxQuant analysis: The MaxQuant software (13) (V1.6.1.0) was used to analyzed the MS data and searched against the human proteome (Uniprot) and a common list of contaminants (included in MaxQuant). Peptide search tolerance was set to 20 ppm for the first search and 10 ppm for the main search while 0.02 Da was used for the fragment mass tolerance. The false discovery rate (FDR) for peptides, proteins and sites identification was set to 1%. Peptide length was set to at least 6 amino acids and peptide re-quantification was enabled. Label-free quantification (MaxLFQ) and “match between runs” were activated. Number of peptides per protein was set to ≥2. Searched modifications were methionine oxidation (variable modification) and carbamidomethylation of cysteines (fixed modification).
# TargetScan analysis: TargetScanHuman v7.2 was used to predict downstream protein targets of miR-27a-3p (n=1421), miR-23a-3p (n=1342) and miR-24-3p (n=761) containing conserved sites, all proteins with a context score≤0 were included to the analysis per TargetScan recommendation. Approximately 15% of miR-27a-3p targets (220/1421), ˜18% of miR-23a-3p targets (247/1342), and ˜16% of miR-24-3p targets (122/761) were detectable in the global proteomics analysis. […] Targets of miR-23a-3p and miR-24-3p were used as comparison as the two miRNAs are expressed at similar levels as miR-27a-3p in MDA-MB-231 cells and are located in the same cluster. P values between distributions were calculated using a two-tailed Kolmogorov-Smirnov test.
# [3] = 100 nM, 3,127 detectable proteins, FDR <5%
# [4] = treated vs. vehicle, relative to all proteins
compound,measurement,setting,value
C#CCN(CC(N)=O)C(=O)C[C@H](Cc1c[nH]c2ccccc12)NC(=O)[C@@H]1C[C@H](NC(=O)Cn2c(=O)[nH]c3ccccc3c2=O)CN1 [Compound 9],number of migrated cells,"MDA-MB-231 cells [1]; MDA-MB-231, normalized to vehicle",dose dependent reduction
same,concentration with statistically significant phenotype reduction,MDA-MB-231 cells [1]; MDA-MB-231 migration,100 nM
same,PP4C expression,PP4C,upregulation
same,number of proteins significantly downregulated,MDA-MB-231 cells [2]; [3],five
same,number of proteins significantly upregulated,MDA-MB-231 cells [2]; [3],15
same,upregulated proteins that are putative direct targets of miR-27a,"MDA-MB-231 cells [2]; 100 nM, of the 15 upregulated, per TargetScan",Eleven
same,cumulative distribution of fold change of miR-23a-3p targets,MDA-MB-231 cells [2]; [4],no significant change
same,cumulative distribution of fold change of miR-24-3p targets,MDA-MB-231 cells [2]; [4],no significant change
same,cumulative distribution of fold change of miR-27a-3p targets,MDA-MB-231 cells [2]; [4],significant upregulation
